Experimental data as given in patent US8597904B2, “Pharmaceutical compositions for the treatment of conditions responsive to proteasome inhibition” (priority 2007, dated 2013).
pIC50: −log10 of the molar value.

Experiments:
[1] = molecular target: T1, human erythrocyte 20S proteasomes, caspase-like activity (Homo sapiens, UniProt P28072); assay: 20S Proteasome Assay Kit, Z-LLE-AMC substrate; format: biochemical
T1 construct: which contains human erythrocyte 20S proteasomes; purchased BIOMOL International AK-740; host or cells: human erythrocytes
Protocol: The eukaryotic 20S proteasome contains three catalytic subunits (β1, β2, and (β5) conferring caspase-like, trypsin-like and chymotrypsin-like proteolytic activities, respectively (Borissenko and Groll. 2007. Chem. Rev. 107:687-717, which is incorporated herein by reference in its entirety). Syringolin A was tested as a proteasome inhibitor using the 20S Proteasome Assay Kit for Drug Discovery AK-740 (BIOMOL® International, Plymouth Meeting, PA, USA), which contains human erythrocyte 20S proteasomes, in a 96-well microtiter plate. The fluorogenic substrates Suc-LLVY-AMC, Boc-LRR-AMC, and Z-LLE-AMC (BIOMOL® International) were used to monitor chymotrypsin-like, trypsin-like, and caspase-like activities, respectively. […] The release of free AMC (7-amino-4-methylcoumarin) at 37° C. was monitored with an MWGt Sirius HT fluorescence microplate reader (BIO-TEK® Instruments) equipped with a 360 nm excitation and a 460 nm emission filter. Proteolytic activities were measured as the increase in relative fluorescence units (RFU) over time (FIG. 7A-C). […] The initial velocities (vi) were determined from the time derivative of these curves and plotted versus the corresponding inhibitor concentration ([I]). […] The rate of covalent inhibition (kassociation), which equals kobs/[I] was calculated over the range of inhibitor concentrations given in parentheses in FIG. 7D. […]

[2] = molecular target: T2, proteasome activity in SK-N-SH neuroblastoma cells (Homo sapiens, UniProt P28074); assay: Proteasome-Glo cell-based luminescent assay
T2 construct: endogenous in cells; host or cells: SK-N-SH
T2 sequence (P28074 60-263): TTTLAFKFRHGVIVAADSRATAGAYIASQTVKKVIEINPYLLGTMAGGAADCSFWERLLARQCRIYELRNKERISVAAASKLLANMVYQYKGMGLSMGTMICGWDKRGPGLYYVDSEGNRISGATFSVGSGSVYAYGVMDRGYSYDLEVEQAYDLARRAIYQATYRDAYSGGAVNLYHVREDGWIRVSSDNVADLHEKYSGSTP
Protocol: Syringolin A was tested as a proteasome inhibitor in vivo in cultured mammalian cancer cells. Inhibition of proteasome activity in human SK-N-SH neuroblastoma cells was measured using the Proteasome-Glo™ cell-based luminescent assay (Promega) in solid white 96-well microtiter cell culture plates. Ten μl of syringolin A (at various concentrations) was added to each well containing SK-N-SH cells (plated at a concentration of 1.0×10^5 cells/ml in 90 μl well volumes 24 hours prior) and a negative control and media only control were included. Cells were incubated with 1-100 μM syringolin A for 2 hours or 24 hours, and then equilibrated to room temperature for 15 minutes before 100 μl of Proteasome-Glo reagent (containing bioluminescent substrate Suc-LLVY-aminoluciferin) was added to the cells. Luminescence (indicated as relative luminescence units [RLU]) was read after 15-30 minutes on a Dynex MLX Luminometer.
To trace the kinetics of proteasome inhibition in the presence of syringolin, the same experiment was performed, but in this case, 100 μl of Proteasome-Glo reagent was added to cells first, followed by the addition of syringolin A at various concentrations, and the proteasome activity was measured over time.
The cell culture-based proteasome inhibition assay was performed as previously described (Groll et al. 2008. Nature 452:755-758, which is incorporated herein by reference in its entirety). Briefly, wells of white-walled 96-well microtiter cell culture plates were seeded at a density of 1×10^4 cells/well (SK-N-SH) or 5×10^3 cells/well (SKOV3) in 90 μl. After 24 hours, 10 μl GlbA or SylA were added at increasing concentrations (0-100 μM) and incubated for 2 hours. […] Cell Death Differ 9:1017-1025; Meng, et al. 1999. PNAS 96:10403-10408, each of which is incorporated herein by reference in its entirety) were used as positive and negative controls, respectively. Microtiter plates were then equilibrated to room temperature for 15 min before adding 100 μl of proteasome Glo™ reagent (containing bioluminescent substrate Suc-LLVY-aminoluciferin) per well. Luminescence was measured on a Dynex MLX luminometer, according to the manufacturer's instructions (Promega).

SMILES | inhibition of caspase-like activity ([1]; 37° C., 100 μM Z-LLE-AMC) | proteasome activity in cells ([2]; 2 hours incubation) | kinetics of proteasome inhibition in cells ([2]; reagent added first, activity measured over time) | inhibition of caspase-like activity ([1]; concentrations tested up to 20 μM) | pIC50 ([2]; 2 hours, read-out: IC50 of proteasomal activity) | potency of GlbA relative to SylA ([2]; ratio of IC50)
CC(C)[C@H](NC(=O)N[C@H](C(=O)N[C@H]1/C=C/CCNC(=O)/C=C/[C@H](C(C)C)NC1=O)C(C)C)C(=O)O [syringolin A] | inhibited | dose-dependent decrease of proteasome activity | inhibited proteasome activity in a time and dose-dependent manner in the micromolar range | – | – | –
CCCCCCC/C=C/C=C/C(=O)N[C@H](C(=O)N[C@H]1C[C@@H](O)CCNC(=O)/C=C/[C@H](C)NC1=O)[C@@H](C)O [glidobactin A] | – | – | – | not inhibited | 7.26 | approximately 26 fold
